Measured values: PubChem BioAssay AID1648 (Sanford-Burnham Center for Chemical Genomics, 2009)
Calls of active or inactive are those of the source. The rule behind the calls is not given here. Residues, ends and D or L forms follow the SMILES beside them.

Molecular target: Serine/threonine-protein kinase mTOR (Homo sapiens) (UniProt P42345)
Experiment: mTOR FRB domain ligand binding – biophysical, NMR (AID 1648)
Conditions: NMR binding to FRB domain, chemical shift

Sequence of Serine/threonine-protein kinase mTOR (Homo sapiens) (P42345 2015-2114): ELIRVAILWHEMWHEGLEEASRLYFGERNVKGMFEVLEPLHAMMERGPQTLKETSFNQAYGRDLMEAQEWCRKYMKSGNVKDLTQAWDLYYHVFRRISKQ

SMILES | Kd
CC(=O)Nn1c(=O)[nH]c2ccccc2c1=O | > 4 mM (inactive)
CC(=O)Nc1nnc(-c2ccccc2S(C)(=O)=O)o1 | > 4 mM (inactive)
CCC(=O)NC(=S)Nc1ccc(N2CCOCC2)cc1 | > 4 mM (inactive)
C[C@H]1[C@H](C)CC[C@]2(C(=O)O)CC[C@]3(C)C(=CCC4[C@@]5(C)C[C@@H](O)[C@H](O)[C@@](C)(CO)C5[C@H](O)C[C@]43C)[C@H]12 (stereo partly drawn) | > 4 mM (inactive)
CC(=O)Nc1cc(N2C(=O)C=CC2=O)ccc1Cl | > 4 mM (inactive)
Cc1ccc(-c2nnc3sc(-c4ccncc4)nn23)cc1 | > 4 mM (inactive)
CC(=O)Nc1c(C)n(C)n(-c2ccccc2)c1=O | > 4 mM (inactive)
O=C(CCc1ccc(O)cc1)c1c(O)cc(O)cc1O[C@@H]1O[C@H](CO)[C@@H](O)[C@H](O)[C@H]1O | > 4 mM (inactive)
CC1CN(C(=O)c2ccncc2)CC(C)O1 (stereo not drawn) | > 4 mM (inactive)
NC1C2CC3CC1CC(O)(C3)C2 (stereo not drawn) | > 4 mM (inactive)
CC(NC(=O)C1CCCCC1)C(=O)NC1=NCCS1 (stereo not drawn) | > 4 mM (inactive)
O=C(NCO)c1ccc([N+](=O)[O-])cc1 | > 4 mM (inactive)
Cc1cccc(NC(=O)Nc2cc(C)on2)c1 | > 4 mM (inactive)
OC1CNCc2cc3c(cc21)OCCO3 (stereo not drawn) | > 4 mM (inactive)
O=C(NN1CCOCC1)c1cccs1 | > 4 mM (inactive)
O=C(O)c1cccnc1Oc1ccccc1 | > 4 mM (inactive)
CC1(C)SCC(C(=O)O)N1C=O (stereo not drawn) | > 4 mM (inactive)
COC1=CC(C)[C@@H]2C[C@H]3OC(=O)C[C@H]4C(C)=C(OC)C(=O)C([C@@]34C)[C@@]2(C)C1=O (stereo partly drawn) | > 4 mM (inactive)
O=C(Nc1ccc2c(c1)OCO2)c1cccc(F)c1 | > 4 mM (inactive)
OCc1csc(-c2ccccc2)n1 | > 4 mM (inactive)
NC1CCN(Cc2ccccc2)CC1 | > 4 mM (inactive)
O=C(NN1C(=O)c2ccccc2C1=O)c1cccs1 | > 4 mM (inactive)
O=[N+]([O-])c1cccc2c1nnn2C(CO)OCCO (stereo not drawn) | > 4 mM (inactive)
NC(=O)CSc1nc2ccccc2c(=O)[nH]1 | > 4 mM (inactive)

SMILES | Kd
c1ccc(Cc2nn3c(-c4ccncc4)nnc3s2)cc1 | > 4 mM (inactive)
NCC1COc2ccccc2O1 (stereo not drawn) | > 4 mM (inactive)
CC(=O)Nc1cccc(-c2nnc(-c3ccccc3)o2)c1 | > 4 mM (inactive)
Cc1occc1C(=O)Nc1ccc(C(N)=O)cc1 | > 4 mM (inactive)
OC[C@@H]1CCCN2CCCC[C@H]12 | > 4 mM (inactive)
CC(C)c1nnc(N)s1 | > 4 mM (inactive)
O=C1NC(=S)N/C1=C\c1cccc([N+](=O)[O-])c1 | > 4 mM (inactive)
Fc1ccc(NC2=NCCS2)cc1Cl | > 4 mM (inactive)
c1ccc2[nH]c(SCc3cscn3)nc2c1 | > 4 mM (inactive)
O=C(O)c1ccc2[nH]c3c(c2c1)CSCC3 | > 4 mM (inactive)
CC1=NNC(=O)C1CCc1ccncc1 (stereo not drawn) | > 4 mM (inactive)
C/C1=C\CCC(=O)C2CC(C)(C)C2CC1 (stereo not drawn) | > 4 mM (inactive)
CN(C)c1nc(N2CCOCC2)nc(N2CCOCC2)n1 | > 4 mM (inactive)
COC(=O)c1cccs1 | > 4 mM (inactive)
CC(=O)Oc1cc2c(c(C)c1OC(C)=O)CC=C1[C@@]2(C)CC[C@@]2(C)C3C[C@](C)(C(=O)O)CC[C@]3(C)CC[C@]12C (stereo partly drawn) | > 4 mM (inactive)
OCC1Cc2ccccc2CN1 (stereo not drawn) | > 4 mM (inactive)
Cn1cnc([N+](=O)[O-])c1Sc1ncnc2nc[nH]c12 | > 4 mM (inactive)
O=C(Nc1ccc2c(c1)OCO2)c1cccs1 | > 4 mM (inactive)
O=C(NC1=NCCS1)c1csc2ccccc12 | > 4 mM (inactive)
NCCNC(=S)Nc1ccccc1 | > 4 mM (inactive)
C[N+](C)(C)CC(O)CC(=O)O (stereo not drawn) | > 4 mM (inactive)
OCc1cc(F)cc2c1OCOC2 | > 4 mM (inactive)
COCc1nc(-c2cc(Br)ccc2OC)no1 | > 4 mM (inactive)
O=c1c(O)cccc2cc(O)c(O)c(O)c12 | > 4 mM (inactive)

SMILES | Kd
Nc1ncnc2nc(SCCN3CCCCC3)[nH]c12 | > 4 mM (inactive)
O=C(O)C1CSC(c2ccccc2)N1 (stereo not drawn) | > 4 mM (inactive)
COc1ccc(-c2cc(=O)c3ccccc3o2)cc1 | > 4 mM (inactive)
O=c1[nH]cc(NCc2ccccc2)c(=O)[nH]1 | > 4 mM (inactive)
Cc1ccc(NC(=O)CC2NCCNC2=O)c(C)c1 (stereo not drawn) | > 4 mM (inactive)
CCOC(=O)c1cnc2cc(C)nn2c1C | > 4 mM (inactive)
COc1c2occc2c(OC)c2c(=O)cc(C)oc12 | > 4 mM (inactive)
CCOC(=O)c1nc2ccccc2c(=O)n1N | > 4 mM (inactive)
O=C1CSC(=Nc2ccc(C(=O)O)cc2)N1 | > 4 mM (inactive)
O=C(O)CCCCCCCCCCCCC1C=CCC1 (stereo not drawn) | > 4 mM (inactive)
Cc1cc(NC(=O)Cc2cccs2)no1 | > 4 mM (inactive)
NC(=O)c1cccc2c1OCCO2 | > 4 mM (inactive)
CC(=O)OC1CCC23CC1(C)CCC2C(C)(C)CC3OC(C)=O (stereo not drawn) | > 4 mM (inactive)
Cc1ccc(C(=O)Nn2cnnc2)c(Cl)c1 | > 4 mM (inactive)
CS(C)=C1C(=O)NC(=O)N(Cc2ccc(F)cc2)C1=O | > 4 mM (inactive)
CC(=O)Oc1c(-c2ccccc2)oc2c(CC=C(C)C)c3c(c(OC(C)=O)c2c1=O)C=CC(C)(C)O3 | > 4 mM (inactive)
Cc1nc2ccccc2c(=O)n1/N=C/c1ccco1 | > 4 mM (inactive)
CC(=O)Nc1cccc(-c2n[nH]c(=S)n2C)c1 | > 4 mM (inactive)
Cc1nc2ccc(C(=O)O)cc2nc1C | > 4 mM (inactive)
Cc1c(C(=O)Nc2ccncc2)oc2c1C(=O)CC(C)(C)C2 | > 4 mM (inactive)
CC1(C)C(=O)C=C[C@@]2(C)C1CC(=O)[C@]1(C)C2CC[C@@]2(C)[C@H](c3ccoc3)OC(=O)[C@H]3O[C@]321 (stereo partly drawn) | > 4 mM (inactive)
OC(c1ccccc1)c1ccccn1 (stereo not drawn) | > 4 mM (inactive)
S=C(c1ccc(N2CCOCC2)cc1)N1CCCCC1 | > 4 mM (inactive)
CC(=O)N1N=C(N)SC1c1cccnc1 (stereo not drawn) | > 4 mM (inactive)

SMILES | Kd
Cc1cc(NC(=O)c2c(F)c(F)c(F)c(F)c2F)no1 | > 4 mM (inactive)
O=C(Nc1ccc2c(c1)OCCO2)c1ccncc1 | > 4 mM (inactive)
Cn1nnc2cc(C(=O)Nc3cccnc3)ccc21 | > 4 mM (inactive)
CC(=O)Nc1ccc(S(=O)(=O)Nc2cc(C)on2)cc1 | > 4 mM (inactive)
Cc1cc(C)n(S(=O)(=O)c2cc(C)c(C)cc2C)n1 | > 4 mM (inactive)
C[C@@H]1CC[C@@]2(OC1)O[C@H]1CC3C4CC[C@H]5C[C@@H](O)CC[C@]5(C)C4CC[C@]3(C)[C@H]1[C@@H]2C (stereo partly drawn) | > 4 mM (inactive)
CN(C)C1CCS(=O)(=O)C1 (stereo not drawn) | > 4 mM (inactive)
Cc1sc2nc(NCCO)[nH]c(=O)c2c1C | > 4 mM (inactive)
O=S1(=O)CCC(NC(=S)Nc2ccc(O)cc2)C1 (stereo not drawn) | > 4 mM (inactive)
O=C1CSC(=O)N1CN1CCOCC1 | > 4 mM (inactive)
COc1ccc2c(c1)OCC(Cc1ccc(OC)c(OC(C)=O)c1)C2=O (stereo not drawn) | > 4 mM (inactive)
CCc1noc(C)c1C(=O)N1CCCC1 | > 4 mM (inactive)
Cc1cc(O)cc(=O)o1 | > 4 mM (inactive)
COc1cc([C@@H]2c3cc4c(cc3[C@H](OC(C)=O)[C@H]3COC(=O)[C@H]23)OCO4)cc(OC)c1OC | > 4 mM (inactive)
Cn1cnnc1SCC(=O)Nc1ccccc1 | > 4 mM (inactive)
Cc1ccc(Nc2nnns2)cc1C | > 4 mM (inactive)
CN1CN(Cc2ccccc2)CN/C1=N/[N+](=O)[O-] | > 4 mM (inactive)
CN1CCN(C2CCN(Cc3ccccc3)CC2)CC1 | > 4 mM (inactive)
FC(F)(F)c1nnc2ccc(N3CCOCC3)nn12 | > 4 mM (inactive)
Cn1c(CN2CC(c3ccccc3)CC2=O)n[nH]c1=S (stereo not drawn) | > 4 mM (inactive)
C=CC(C1=CC(=O)C=CC1=O)c1ccccc1 (stereo not drawn) | > 4 mM (inactive)
COc1cc2c(cc1OC)[C@@]13CCN4CC5=CCOC6CC(=O)N2C1[C@H]6[C@H]5C[C@H]43 (stereo partly drawn) | > 4 mM (inactive)
O=C(CSc1nc2ccccc2[nH]1)N1CCCCC1 | > 4 mM (inactive)
NC1=NC(=O)/C(=C\c2cccnc2)S1 | > 4 mM (inactive)

SMILES | Kd
c1ccc2c(c1)nnn2C1CCNCC1 | > 4 mM (inactive)
CCN(CC)C(=O)c1n[nH]c(=O)c2ccccc12 | > 4 mM (inactive)
Cc1cc(C)n(C/C=C/Cn2nc(C)cc2C)n1 | > 4 mM (inactive)
CC(=O)OC1CCC2(C)C3CC(=O)C4(C)C(CC5OC6(CCC(C)CO6)[C@@H](C)C54)C3CC[C@H]2C1 (stereo partly drawn) | > 4 mM (inactive)
O=C(NCc1cccc(Cl)c1)c1cccnc1 | > 4 mM (inactive)
O=C(O)c1ccccc1C(=O)Nc1ccccc1 | > 4 mM (inactive)
NC(=O)c1ccccc1NC(=O)C1CC1 | > 4 mM (inactive)
Oc1ccc2c(c1)OCC1(O)Cc3cc(O)c(O)cc3C21 (stereo not drawn) | > 4 mM (inactive)
CSc1ccc(/C=N/n2c(C)nnc2C)cc1 | > 4 mM (inactive)
CC(=O)N[C@@H](CC(=O)O)C(=O)N[C@@H](CCC(=O)O)C(=O)O (Ac-Asp-Glu-OH) | > 4 mM (inactive)
COC(=O)CC1SC(=O)NC1=O (stereo not drawn) | > 4 mM (inactive)
O=C(Nc1ccc2c(c1)OCCO2)c1c(F)cccc1F | > 4 mM (inactive)
Cn1nnc2cc(CO)ccc21 | > 4 mM (inactive)
Cc1nc(SCC(=O)c2c[nH]c3ccccc23)n[nH]1 | > 4 mM (inactive)
O/N=C1/CCCc2nonc21 | > 4 mM (inactive)
CCc1c(C)n([O-])c2c([n+]1=O)CCC2 | > 4 mM (inactive)
O=C1CC(c2c[nH]c3ccccc23)C(=O)N1 (stereo not drawn) | > 4 mM (inactive)
CN1CCC(N(C)Cc2cccnc2)CC1 | > 4 mM (inactive)
CC1(C)Oc2ccc(N)cc2O1 | > 4 mM (inactive)
O=S(=O)(NCc1ccco1)c1cccc2cccnc12 | > 4 mM (inactive)
NC(=O)CC1NC(=O)c2ccccc21 (stereo not drawn) | > 4 mM (inactive)
Cc1cc(C(=O)Nc2ccccn2)no1 | > 4 mM (inactive)
